How the values were obtained:
[1] = test system: ischemic neurologic deficit; settings: cited from earlier work
[2] = test system: acute focal cerebral ischemia (MCA occlusion); set-up: species or system cat; settings: in vivo; for lived up to 7 days / mortality, 24-28 hours / mortality, 48-72 hours / mortality, less than 24 hours: ip
[3] = test system: neurologic deficits secondary to cerebral ischemia; settings: man; cited from earlier work
[4] = test system: analgesic response; settings: mice; cited from earlier work

| Compound | survival and neurologic function in several models of stroke ([1]; gerbils (Holaday and D'Amato)) | neurologic function and infarct size after temporary carotid occlusion ([1]; gerbils (Levy et al.)) | neurologic deficits produced by unilateral carotid ligation ([1]; gerbils, intraperitoneal (Hosobuchi et al.)) | effect in prolonging survival [2] | lived up to 7 days [2] [%] | mortality, 24-28 hours [2] [%] | mortality, 48-72 hours [2] [%] | mortality, less than 24 hours [2] [%] | effect on neurologic deficits secondary to cerebral ischemia [3] | analgesic potency [4] |
| --- | --- | --- | --- | --- | --- | --- | --- | --- | --- | --- |
| C=CCN1CC[C@]23c4c5ccc(O)c4O[C@H]2C(=O)CC[C@@]3(O)[C@H]1C5 [Naloxone, 17-allyl-4-5α-epoxy-3,14-dihydroxymorphinan-6-one] | no beneficial effect | did not produce improved neurologic function or alter infarct size | can be reversed | prolonged survival | 31 | 15 | 0 | 54 | can reverse neurologic deficits |  |
| O=C1CC[C@@]2(O)[C@H]3Cc4ccc(O)c5c4[C@@]2(CCN3CC2CC2)[C@H]1O5 [Naltrexone] |  |  |  | prolonged survival | 40 | 10 | 10 | 40 |  |  |
| CN1CC[C@]23c4c5ccc(O)c4O[C@H]2[C@@H](O)C=C[C@H]3[C@H]1C5 [morphine] |  |  |  |  |  |  |  |  | exacerbates them |  |
| Dynorphin |  |  |  |  |  |  |  |  |  | little or no analgesic potency |

Reference: patent US4684624A (priority 1985, dated 1987)
